{"source": "patent US8748632B2", "about": "“Positive allosteric modulators of group II mGluRs” (Sanford-Burnham Medical Research Institute, priority 2010, dated 2014)", "target": "mGluR2 (Rattus norvegicus, UniProt P31421)", "sequence (P31421 19-872)": "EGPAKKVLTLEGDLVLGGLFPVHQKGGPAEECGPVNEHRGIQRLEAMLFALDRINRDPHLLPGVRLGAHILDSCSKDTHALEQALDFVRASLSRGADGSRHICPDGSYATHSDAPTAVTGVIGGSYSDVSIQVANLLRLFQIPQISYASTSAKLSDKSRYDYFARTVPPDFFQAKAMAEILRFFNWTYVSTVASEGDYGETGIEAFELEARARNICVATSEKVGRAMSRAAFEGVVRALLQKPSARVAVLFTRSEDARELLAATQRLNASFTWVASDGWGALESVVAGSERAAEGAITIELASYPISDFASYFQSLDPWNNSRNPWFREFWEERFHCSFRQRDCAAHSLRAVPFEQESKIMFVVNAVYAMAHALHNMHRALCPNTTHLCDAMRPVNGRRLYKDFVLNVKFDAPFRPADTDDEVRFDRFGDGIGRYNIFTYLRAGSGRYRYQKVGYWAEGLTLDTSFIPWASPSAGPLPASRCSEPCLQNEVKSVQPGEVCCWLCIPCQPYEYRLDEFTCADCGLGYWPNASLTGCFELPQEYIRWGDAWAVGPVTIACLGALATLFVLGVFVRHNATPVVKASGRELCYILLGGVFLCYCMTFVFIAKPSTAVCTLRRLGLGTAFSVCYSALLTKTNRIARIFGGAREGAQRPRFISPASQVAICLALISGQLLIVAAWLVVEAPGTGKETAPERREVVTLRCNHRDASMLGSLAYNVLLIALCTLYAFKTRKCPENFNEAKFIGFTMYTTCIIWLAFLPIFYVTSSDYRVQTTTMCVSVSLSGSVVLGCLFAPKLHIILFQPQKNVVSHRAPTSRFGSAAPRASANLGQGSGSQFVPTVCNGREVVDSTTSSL", "test": "mGluR2 PAM (positive allosteric modulator) EC50", "type": "cell-based", "conditions": "positive allosteric modulator activity", "data": [{"compound": "O=C(O)c1cc(-c2cccc(COc3ccc4c(=O)n(C5CCCCC5)oc4c3)c2)ccc1Cl", "note": "[Example 61, 4-Chloro-3′-((2-cyclohexyl-3-oxo-2,3-dihydrobenzo[d]isoxazol-6-yloxy)methyl)biphenyl-3-carboxylic acid]", "values": [{"measurement": "mGluR2 PAM EC50(μM)", "value": "desensitizes"}]}]}
